The values below come from ChEMBL document CHEMBL5338740, “Atropo/Tropo Flexibility: A Tool for Design and Synthesis of Self-Adaptable Inhibitors of Carbonic Anhydrases and Their Antiproliferative Effect” (J Med Chem, 2023).

Activity calls are given as the source filed them. The rule behind the calls is not given here.

For one experiment, the target named is Carbonic anhydrase 9 (Homo sapiens, UniProt Q16790). In words: Inhibition of recombinant human […] assessed as inhibition constant preincubated for 15 mins by phenol red dye based stopped-flow CO2 hydration assay.
In another experiment the test system is A549. Put plainly: Cytotoxicity against human A549 cells assessed as inhibition of cell viability for 48 hrs by MTT assay. The format is functional, cell-based. To be noted: A549, 48 h.
The target of another experiment is Carbonic anhydrase 12 (Homo sapiens, UniProt O43570). In words: Inhibition of recombinant human CA XII (30 to 291 residues) expressed in escherichia coli BL21 assessed as inhibition constant preincubated for 15 mins by phenol red dye based stopped-flow CO2 hydration assay.
Chain of Carbonic anhydrase 12 (O43570 whole entry, the tested form may be a part): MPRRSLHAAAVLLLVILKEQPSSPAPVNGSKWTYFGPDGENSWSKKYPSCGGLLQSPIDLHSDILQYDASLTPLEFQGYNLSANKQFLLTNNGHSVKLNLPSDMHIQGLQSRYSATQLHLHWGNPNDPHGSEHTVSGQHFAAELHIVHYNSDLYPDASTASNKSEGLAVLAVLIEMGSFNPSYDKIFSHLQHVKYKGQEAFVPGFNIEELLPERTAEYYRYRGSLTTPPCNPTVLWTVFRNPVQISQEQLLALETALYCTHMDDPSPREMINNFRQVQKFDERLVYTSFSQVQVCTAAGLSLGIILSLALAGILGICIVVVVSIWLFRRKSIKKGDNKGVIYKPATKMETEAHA
A further experiment relates to HeLa. In words: Cytotoxicity against human HeLa cells assessed as inhibition of cell viability for 48 hrs by MTT assay. In kind it is functional, cell-based. Background: Tetrazolium assays rely on reduction of a dye to a coloured formazan, in cell work by metabolically active cells.
Another experiment has as its target Carbonic anhydrase 1 (Homo sapiens, UniProt P00915). In words: Inhibition of recombinant human CA1 assessed as inhibition constant preincubated for 15 mins by phenol red dye based stopped-flow CO2 hydration assay.
A further experiment has as its target Carbonic anhydrase 2 (Homo sapiens, UniProt P00918). Put plainly: Inhibition of recombinant human […] assessed as inhibition constant preincubated for 15 mins by phenol red dye based stopped-flow CO2 hydration assay.
Another experiment relates to MCF7. Put plainly: Cytotoxicity against human MCF7 cells assessed as inhibition of cell viability for 48 hrs by MTT assay. The following applies: for IC50: MCF7, 48 h. The format is functional, cell-based.

Chain of Carbonic anhydrase 1 (P00915 whole entry): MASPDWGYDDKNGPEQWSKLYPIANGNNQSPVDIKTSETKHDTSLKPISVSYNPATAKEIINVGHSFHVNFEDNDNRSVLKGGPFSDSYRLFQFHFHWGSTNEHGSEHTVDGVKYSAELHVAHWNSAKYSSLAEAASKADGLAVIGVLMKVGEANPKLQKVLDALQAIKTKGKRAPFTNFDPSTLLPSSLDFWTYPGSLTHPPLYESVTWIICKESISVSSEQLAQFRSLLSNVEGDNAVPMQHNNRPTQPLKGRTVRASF

Usually Ki stands for the equilibrium dissociation constant of an inhibitor or competing ligand from its target. The term IC50 denotes the concentration that inhibits the measured activity by half. `NS(=O)(=O)c1ccc(-c2ccc(-c3ccnc4ccccc34)cn2)s1`: the inhibition constant (Ki) at Carbonic anhydrase 9 amounted to 61.4 nM; on Carbonic anhydrase 12, 51 nM; at Carbonic anhydrase 1, 72.5 nM; at Carbonic anhydrase 2, 2.1 nM. For the same compound, the IC50 with A549 is above 500000 nM. Also, the result in the experiment with HeLa and in the experiment with MCF7 was inactive.
Turning to `Cc1cc(-c2cccc(S(N)(=O)=O)c2)cnc1-c1ccnc2ccccc12`, the inhibition constant (Ki) at Carbonic anhydrase 9 was found to be 215 nM; on Carbonic anhydrase 12, 450 nM; at Carbonic anhydrase 1 it was 479 nM; at Carbonic anhydrase 2 it was 88.6 nM.
For `Cc1cc(-c2cccc(S(N)(=O)=O)c2)ccc1-c1cccc2ccccc12`, the inhibition constant (Ki) on Carbonic anhydrase 9 was found to be 86.2 nM; on Carbonic anhydrase 12, 386 nM; at Carbonic anhydrase 1, 670 nM; at Carbonic anhydrase 2, 101 nM.
The corresponding values for `Cc1cc(-c2ccc(S(N)(=O)=O)cc2)cnc1-c1ccnc2ccccc12` are 167 nM, 247 nM, 48.9 nM and 4.9 nM.
Regarding `Cc1cc(-c2ccc(S(N)(=O)=O)s2)ccc1-c1cccc2ccccc12`, the Ki on Carbonic anhydrase 9 is 29.3 nM; at Carbonic anhydrase 12, 212 nM; at Carbonic anhydrase 1 it was 67.5 nM; on Carbonic anhydrase 2, 34.8 nM. In addition, the results for the half-inhibitory concentration (IC50) with A549, with HeLa and in the experiment on MCF7 were 102000 nM, above 500000 nM and above 500000 nM, respectively.
Regarding `Cc1cc(-c2ccc(S(N)(=O)=O)s2)cnc1-c1cccc2ccccc12`, the Ki at Carbonic anhydrase 9 was found to be 29.3 nM; on Carbonic anhydrase 12, 212 nM; on Carbonic anhydrase 1, 90.5 nM; on Carbonic anhydrase 2, 7.3 nM.
The corresponding values for `NS(=O)(=O)c1ccc(-c2ccc(-c3cccc4ncccc34)cc2)cc1` are 72.1 nM, 552 nM, 85.8 nM and 33.3 nM.
Take `NS(=O)(=O)c1cccc(-c2ccc(-c3cccc4ccccc34)cc2)c1`: the inhibition constant (Ki) at Carbonic anhydrase 9 was 331 nM; at Carbonic anhydrase 12, 558 nM; at Carbonic anhydrase 1 it was 698 nM; at Carbonic anhydrase 2, 144 nM.
The corresponding values for `NS(=O)(=O)c1ccc(-c2ccc(-c3cccc4ccccc34)cc2)cc1` are 84.3 nM, 501 nM, 113 nM and 58.2 nM.
In the case of `Cc1cc(-c2ccc(S(N)(=O)=O)s2)ccc1-c1cccc2ncccc12`, the Ki on Carbonic anhydrase 9 turned out to be 27.2 nM; at Carbonic anhydrase 12, 79.4 nM; on Carbonic anhydrase 1 it was 71.7 nM; on Carbonic anhydrase 2, 5.7 nM. In addition, the half-inhibitory concentration (IC50) with A549 was 22000 nM; in the experiment with HeLa, 31000 nM; with MCF7, 32000 nM.
For the compound `Cc1cc(-c2ccc(S(N)(=O)=O)s2)cnc1-c1ccnc2ccccc12`, the Ki at Carbonic anhydrase 9 came to 68.1 nM; on Carbonic anhydrase 12, 157 nM; on Carbonic anhydrase 1, 50 nM; at Carbonic anhydrase 2 it was 3.7 nM. The figures for the half-inhibitory concentration (IC50) in the experiment on A549, with HeLa and in the experiment with MCF7 were 43500 nM, 105000 nM and 16500 nM, respectively.
As for `NS(=O)(=O)c1ccc(-c2ccc(-c3cccc4ncccc34)cc2)s1`, the Ki on Carbonic anhydrase 9 turned out to be 38.4 nM; on Carbonic anhydrase 12, 71.8 nM; at Carbonic anhydrase 1 it was 84.5 nM; on Carbonic anhydrase 2, 11.3 nM.
With `NS(=O)(=O)c1ccc(-c2ccc(-c3cccc4ccccc34)cc2)s1`, the Ki amounted to 483 nM on Carbonic anhydrase 9, 559 nM on Carbonic anhydrase 12, 92.8 nM on Carbonic anhydrase 1 and 28.7 nM on Carbonic anhydrase 2. The concentration for half-maximal inhibition (IC50) is 30000 nM with A549, 24000 nM with HeLa and 69000 nM in the experiment with MCF7.
On to `Cc1cc(-c2ccc(S(N)(=O)=O)s2)ccc1-c1ccnc2ccccc12`, for which the inhibition constant Ki was determined as 106 nM on Carbonic anhydrase 9, 41.8 nM at Carbonic anhydrase 12, 35.6 nM at Carbonic anhydrase 1 and 5.5 nM at Carbonic anhydrase 2.
The corresponding values for `Cc1cc(-c2ccc(S(N)(=O)=O)cc2)ccc1-c1cccc2ccccc12` are 75.6 nM, 808 nM, 54.8 nM and 30.5 nM.
For `Cc1cc(-c2ccc(S(N)(=O)=O)s2)cnc1-c1cccc2ncccc12`, the Ki on Carbonic anhydrase 9 came out at 29.8 nM; on Carbonic anhydrase 12, 86.3 nM; on Carbonic anhydrase 1 it was 59 nM; at Carbonic anhydrase 2 it was 3.2 nM. Moreover, the half-maximal inhibitory concentration (IC50) turned out to be 68000 nM with A549, 51000 nM with HeLa and 71000 nM with MCF7.
